In PubChem BioAssay AID1963871 (Molecular Pharmacology Branch, DTP, NCI, 2024) one finds viability, T/C and IC50 data, which are given here for seven compounds.

The subject of the test is KRAS-mutant PDC multicell tumor spheroid viability. Description: Anticancer human tumor 521955-158-R2-J5-PDC patient-derived pancreatic carcinoma cell line growth inhibition [KRAS2]. Conditions: for viability, T/C: stronger effect = lower value. An excerpt:
Multicellular complex tumor spheroid response to RAS pathway inhibitors in combination with a targeted agents in patient-derived cell lines with oncogenic KRAS variants from multiple cancer types
A high-throughput screen of multi-cell type tumor spheroids was designed to identify active combinations of targeted small molecules and KRAS pathway inhibitors. Complex spheroids include a stromal component modeled by human endothelial cells (HUVEC) and fibroblasts modeled by human mesenchymal stem cells (MSCs). The concentration ranges selected for each drug and investigational agent were based upon clinically achievable concentrations if the clinical Cmax of the agent was known.
Compounds. The drugs and investigational agents: BI-3406 (NSC825286), BAY-293 (NSC824723), batoprotafib (TNO155; NSC825523), sotorasib (AMG 510; NSC818433), MRTX1257 (NSC819558), elimusertib (BAY 1895344; NSC800525), molibresib (GSK525762; NSC774829), temuterkib (LY3214996; NSC803410), venetoclax (NSC766270), alisertib (NSC759677), olaparib (NSC753686), talazoparib (NSC767125), erdafitinib (NSC781556), ipatasertib (NSC767898), cabozantinib (NSC761068), nintedanib (NSC756659), abemaciclib (NSC768073), docetaxel (NSC628503), trametinib (NSC758246), and sapanisertib (NSC764658) were obtained from the National Cancer Institute (NCI) Developmental Therapeutics Program Chemical Repository. The FDA-approved anticancer drug set is available from the Developmental Therapeutics Program. […] The stock solutions were prepared in dimethyl sulfoxide (DMSO, Sigma-Aldrich, St. Louis, MO, cat. D2650) at 800-fold the tested concentration and stored at -70 degrees C prior to their use. All drugs and investigational agents were tested over a range starting from a high concentration at or near the clinical Cmax and decreasing in half-log increments. If the clinical Cmax for an agent had not been determined, the highest concentration tested was 10 microM.
Cell Culture. All cells were maintained in an incubator at 37 degrees C and 5% CO2 with 95% humidity. The PDC lines were cultured according to standard operating procedures established by the NCI PDMR (https://pdmr.cancer.gov/sops/default.htm). Briefly, all PDCs were thawed and cultured in Matrigel-coated flasks prepared with a working solution of 1X Ham's F-12 nutrient mix, without supplementation (Invitrogen, Waltham, MA, cat. 11765054), 100 U/mL penicillin-streptomycin (Invitrogen, cat. 15140122), and 2.5% Matrigel (Corning Inc., Corning, NY, cat. 354248) for the first three passages. All PDCs were cultured in complete DMEM/F-12 media containing advanced DMEM/F-12 (Invitrogen, cat. 12634028), 4.9% defined fetal bovine serum, heat inactivated (HyClone Laboratories Inc., Logan, UT, cat. SH30070.03HI), 389 ng/mL hydrocortisone (Sigma-Aldrich, cat. H4001), 9.7 ng/mL human EGF recombinant protein (Invitrogen, cat. PHG0313), 23.4 microg/mL adenine (Sigma-Aldrich, cat. A2786), 97.3 U/mL penicillin-streptomycin (Invitrogen, cat. 15140122), 1.9 mM L-glutamine (Invitrogen, cat. 25030081), and 9.7 microM Y-27632 dihydrochloride (Tocris Bioscience, Bristol, United Kingdom, cat. 1254). The PDCs were cultured in complete DMEM/F12 media without 9.7 microM Y-27632 dihydrochloride for at least two passages prior to the screen. The established cell line HOP-62 was cultured in RPMI 1640 medium, HEPES (Invitrogen, cat. 22400105) with 10% defined fetal bovine serum (HyClone Laboratories Inc., cat. SH30070.03) and 2 mM L-glutamine (Invitrogen, cat. 25030081). The pooled donor HUVEC were cultured in endothelial cell growth medium 2 (PromoCell, Heidelberg, Germany, cat. C-22011) and the hMSC were cultured in mesenchymal stem cell growth medium 2 (PromoCell, cat. C-28009). For all experiments, HUVEC and hMSC were used at passages </=5, while the malignant cell lines were used at passages </=15. […]

Where [1] appears, read: compound alone, run of 08/26/2021.
[2] abbreviates: compound alone, run of 09/02/2021.
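Also: viability read after seven days of drug exposure.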

Turning to `C=CC(=O)N1CCN(c2nc(=O)n(-c3c(C)ccnc3C(C)C)c3nc(-c4c(O)cccc4F)c(F)cc23)C(C)C1` (centres undefined), the viability, T/C (usually the ratio of treated to control) runs as follows: (compound 0.1 µM) 105% [middle of 17 runs]; (compound 10 µM) 66.7% [middle of 17 runs]. Further, the IC50 (in general, the concentration needed to halve the response being measured) was greater than 10 µM (compound alone, run of 08/19/2021); greater than 10 µM under setting [1]; greater than 10 µM under setting [2].

Take `C=CC(=O)N1CCN(c2nc(OCC3CCCN3C)nc3c2CCN(c2cccc4cccc(C)c24)C3)CC1CC#N` (centres undefined): the IC50 is 1.71 µM [middle of 5 runs] under setting [1] and 1.82 µM [middle of 6 runs] under setting [2].

For `CNCc1ccccc1-c1csc(C(C)Nc2nc(C)nc3cc(OC)c(OC)cc23)c1` (centres undefined), the viability, T/C was 93.3% [middle of 17 runs] (compound 0.1 µM), 93.4% [middle of 17 runs] (compound 0.316 µM) and 0.16% [middle of 15 runs] (compound 10 µM). The concentration for half-maximal inhibition (IC50) reads like this: under setting [1], 1.68 µM [middle of 5 runs]; under setting [2], 1.82 µM [middle of 6 runs].

For the compound `COC(=O)c1ccc2c(C(=Nc3ccc(N(C)C(=O)CN4CCN(C)CC4)cc3)c3ccccc3)c(O)[nH]c2c1`, the viability, T/C reads like this: (compound 0.0316 µM) 102% [middle of 5 runs]; (compound 0.1 µM) 105% [middle of 5 runs]; (compound 10 µM) 0.29% [middle of 5 runs]. The half-maximal inhibitory concentration (IC50) (curve of compound) was 2.06 µM [middle of 5 runs].

On to `COc1cc2nc(C)nc(NC(C)c3cc(N)cc(C(F)(F)F)c3)c2cc1OC1CCOC1` (centres undefined), for which, for the setting “compound 0.1 µM”, the viability, T/C was 87.8% [middle of 17 runs]. The IC50 was greater than 10 µM under setting [1] and greater than 10 µM under setting [2].

Regarding `COc1cc2nccc(Oc3ccc(NC(=O)C4(C(=O)Nc5ccc(F)cc5)CC4)cc3)c2cc1OC`, the viability, T/C is, setting by setting: (compound 0.0316 µM) 99.7% [middle of 5 runs]; (compound 0.1 µM) 98.8% [middle of 4 runs]; (compound 0.316 µM) 103% [middle of 5 runs]; (compound 1 µM) 109% [middle of 5 runs]; (compound 10 µM) 39.7% [middle of 5 runs].

On to `CC(=O)OC12COC1CC(O)C1(C)C(=O)C(O)C3=C(C)C(OC(=O)C(O)C(NC(=O)OC(C)(C)C)c4ccccc4)CC(O)(C(OC(=O)c4ccccc4)C21)C3(C)C` (centres undefined) + C=CC(=O)N1CCN(c2nc(=O)n(-c3c(C)ccnc3C(C)C)c3nc(-c4c(O)cccc4F)c(F)cc23)C(C)C1, for which the IC50 is less than 0.01 µM (curve of first compound, second compound 0.1 µM); less than 0.01 µM (curve of first compound, second compound 0.316 µM); less than 0.01 µM (curve of first compound, second compound 1 µM); less than 0.01 µM (curve of first compound, second compound 3.16 µM); less than 0.01 µM (curve of first compound, second compound 10 µM). Moreover, the viability, T/C (second compound 0.1 µM, first compound 0.01 µM) is 21.5%; the viability, T/C (second compound 0.1 µM, first compound 0.0316 µM) was 15.5%; the viability, T/C (second compound 0.1 µM, first compound 0.1 µM) was 15.1%; the viability, T/C (second compound 0.1 µM, first compound 0.316 µM) is 15.4%; the viability, T/C (second compound 0.1 µM, first compound 1 µM) is 15.7%; the viability, T/C (second compound 0.1 µM, first compound 3.16 µM) was 17.4%. In addition, the viability, T/C is 22.5% (second compound 0.316 µM, first compound 0.01 µM); 13.3% (second compound 0.316 µM, first compound 0.0316 µM); 11.5% (second compound 0.316 µM, first compound 0.1 µM); 12.6% (second compound 0.316 µM, first compound 0.316 µM); 13.6% (second compound 0.316 µM, first compound 1 µM); 20% (second compound 0.316 µM, first compound 3.16 µM). For the same compound, the viability, T/C runs as follows: (second compound 1 µM, first compound 0.01 µM) 15%; (second compound 1 µM, first compound 0.0316 µM) 10.9%; (second compound 1 µM, first compound 0.1 µM) 10.9%; (second compound 1 µM, first compound 0.316 µM) 12%; (second compound 1 µM, first compound 1 µM) 11.9%; (second compound 1 µM, first compound 3.16 µM) 12.1%. The viability, T/C runs as follows: (second compound 3.16 µM, first compound 0.01 µM) 17.5%; (second compound 3.16 µM, first compound 0.0316 µM) 10.9%; (second compound 3.16 µM, first compound 0.1 µM) 6.69%; (second compound 3.16 µM, first compound 0.316 µM) 7.49%; (second compound 3.16 µM, first compound 1 µM) 11.8%; (second compound 3.16 µM, first compound 3.16 µM) 16.2%. The viability, T/C is 20.7% (second compound 10 µM, first compound 0.01 µM); 13.1% (second compound 10 µM, first compound 0.0316 µM); 9.39% (second compound 10 µM, first compound 0.1 µM); 9.36% (second compound 10 µM, first compound 0.316 µM); 12.5% (second compound 10 µM, first compound 1 µM); 12.7% (second compound 10 µM, first compound 3.16 µM).
